The nature of assay [1]: Inhibition of PDE9.
Assay [2] has as its target High affinity cGMP-specific 3',5'-cyclic phosphodiesterase 9A (Homo sapiens, UniProt O76083). As to the kind of experiment: Inhibition of human PDE9A expressed in Escherichia coli BL21 by liquid scintillation counting.

pIC50: −log10 of the molar value. A value given as a limit tells only on which side of the number the result lay.

High affinity cGMP-specific 3',5'-cyclic phosphodiesterase 9A, sequence (O76083 whole entry): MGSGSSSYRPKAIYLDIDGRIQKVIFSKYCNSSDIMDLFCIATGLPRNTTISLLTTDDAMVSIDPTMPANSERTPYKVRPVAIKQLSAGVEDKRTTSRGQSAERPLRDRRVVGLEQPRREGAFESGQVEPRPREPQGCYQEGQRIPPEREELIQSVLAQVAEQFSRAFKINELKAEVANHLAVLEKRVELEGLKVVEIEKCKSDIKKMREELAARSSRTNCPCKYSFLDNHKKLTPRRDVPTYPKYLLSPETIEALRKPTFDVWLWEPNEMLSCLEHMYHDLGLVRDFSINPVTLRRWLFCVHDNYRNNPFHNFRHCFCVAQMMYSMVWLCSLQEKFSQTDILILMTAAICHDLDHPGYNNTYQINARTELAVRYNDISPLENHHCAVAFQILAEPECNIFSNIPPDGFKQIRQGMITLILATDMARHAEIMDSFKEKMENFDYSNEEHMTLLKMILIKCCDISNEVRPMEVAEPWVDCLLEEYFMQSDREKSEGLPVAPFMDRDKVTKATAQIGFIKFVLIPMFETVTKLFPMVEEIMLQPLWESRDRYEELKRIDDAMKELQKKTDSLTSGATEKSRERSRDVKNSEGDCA

With `C[C@H](Cc1nc2c(cnn2-c2ccccc2Cl)c(=O)[nH]1)C(F)(F)F`, the pIC50 in assay [1] was 7.26.

In assay [2], `CC(C)Cn1c(=O)n(C)c(=O)c2[nH]cnc21` [ISOBUTYLMETHYLXANTHINE] had a pIC50 below 3.70.

The values above are taken from ChEMBL document CHEMBL1154916, “Insight into binding of phosphodiesterase-9A selective inhibitors by crystal structures and mutagenesis” (J Med Chem, 2010).
